From patent publication US9181263B2, “Inhibitors of bruton's tyrosine kinase” (PHARMACYCLICS, INC., priority 2007, dated 2015) come the findings set out here.

Each structure is given as a SMILES string. Some results are limits rather than exact numbers.

In test [1] the target is BTK (Homo sapiens (Human), UniProt Q06187). Kind of test: HotSpot kinase assay, BTK. The format is biochemical. Conditions: purified enzyme, 33P-ATP, 1 uM ATP.
In test [2] the target is EGFR (Homo sapiens (Human), UniProt P00533). Kind of test: HotSpot kinase assay, EGFR. The format is biochemical. Conditions: purified enzyme, 33P-ATP, 1 uM ATP; printed EFGR in Table 1.
Test [3] can be described thus: Glutathione binding assay. The format is physicochemical. The note with it: 5 mM glutathione, 10 μM inhibitor, potassium phosphate buffer, room temperature, HPLC. The protocol:
A calculated value (e.g (1/Btk IC50)/Glutathione conjugation rate) as shown in the Table 2) is used to compare compounds for their ratio between potency at inhibiting their target and their non-specific binding to other SH groups, such as those in glutathione. […] Calculated ratios such as these are used to quantitatively compare different compounds and select compounds for further study.
For the glutathione binding assays, 5 mM glutathione, 10 μM Btk inhibitor in DMSO (10 μL) and 6 equivalents of N′N′ Diisopropyl ethyl amine were combined in 1 mL potassium phosphate buffer. The mixture was incubated for 0, 15, 60 minutes at room temperature and the reaction was stopped with 10 equivalents of formic acid. 50 μL of each reaction mixture was injected on HPLC (Mobil Phase A: 0.2% formic acid in water, Mobile Phase B: 0.2% formic acid in acetonitrile, HPLC Column: Metasil Basic 3μ, 150×4.6 mm, 10% B, Gradient: 10% to 90% B, Detection: UV/Vis […]). Rate of reaction was reported as nmole GSH conjugate conversion per minute from the normalized ratio for area under the curve from HPLC chromatograms for both GSH conjugate and the parent.

Test [4] has as its system lymphoma cell line DOHH2. Nature of the test: DOHH2 cell proliferation assay (Alamar Blue). The format is cell-based. Conditions: Homo sapiens, DOHH-2, 72 hours. The method, then: After 72 hours, cell number was measured using Alamar Blue using manufacturer's protocol. A dilution series of untreated cells was run in parallel to verify that the Alamar Blue assay reliably reflected cell number and that growth conditions were not limiting. […] GI50 values were confirmed in two or more separate experiments for each cell line.
Analogs are generated that are Btk inhibitors and that are cytotoxic to the lymphoma cell line DOHH2. For the DOHH2 cell proliferation assay, cells were seeded in 96-well plates in standard growth media (RPMI+10% fetal calf serum) and compounds were added in a 9-point dilution series ranging from 10 uM to 0.04 uM with DMSO at 0.1% final concentration in all wells. After 72 hours, cell number was measured using Alamar Blue using manufacturer's protocol. A dilution series of untreated cells was run in parallel to verify that the Alamar Blue assay reliably reflected cell number and that growth conditions were not limiting.

Chain of EGFR (P00533 25-1210): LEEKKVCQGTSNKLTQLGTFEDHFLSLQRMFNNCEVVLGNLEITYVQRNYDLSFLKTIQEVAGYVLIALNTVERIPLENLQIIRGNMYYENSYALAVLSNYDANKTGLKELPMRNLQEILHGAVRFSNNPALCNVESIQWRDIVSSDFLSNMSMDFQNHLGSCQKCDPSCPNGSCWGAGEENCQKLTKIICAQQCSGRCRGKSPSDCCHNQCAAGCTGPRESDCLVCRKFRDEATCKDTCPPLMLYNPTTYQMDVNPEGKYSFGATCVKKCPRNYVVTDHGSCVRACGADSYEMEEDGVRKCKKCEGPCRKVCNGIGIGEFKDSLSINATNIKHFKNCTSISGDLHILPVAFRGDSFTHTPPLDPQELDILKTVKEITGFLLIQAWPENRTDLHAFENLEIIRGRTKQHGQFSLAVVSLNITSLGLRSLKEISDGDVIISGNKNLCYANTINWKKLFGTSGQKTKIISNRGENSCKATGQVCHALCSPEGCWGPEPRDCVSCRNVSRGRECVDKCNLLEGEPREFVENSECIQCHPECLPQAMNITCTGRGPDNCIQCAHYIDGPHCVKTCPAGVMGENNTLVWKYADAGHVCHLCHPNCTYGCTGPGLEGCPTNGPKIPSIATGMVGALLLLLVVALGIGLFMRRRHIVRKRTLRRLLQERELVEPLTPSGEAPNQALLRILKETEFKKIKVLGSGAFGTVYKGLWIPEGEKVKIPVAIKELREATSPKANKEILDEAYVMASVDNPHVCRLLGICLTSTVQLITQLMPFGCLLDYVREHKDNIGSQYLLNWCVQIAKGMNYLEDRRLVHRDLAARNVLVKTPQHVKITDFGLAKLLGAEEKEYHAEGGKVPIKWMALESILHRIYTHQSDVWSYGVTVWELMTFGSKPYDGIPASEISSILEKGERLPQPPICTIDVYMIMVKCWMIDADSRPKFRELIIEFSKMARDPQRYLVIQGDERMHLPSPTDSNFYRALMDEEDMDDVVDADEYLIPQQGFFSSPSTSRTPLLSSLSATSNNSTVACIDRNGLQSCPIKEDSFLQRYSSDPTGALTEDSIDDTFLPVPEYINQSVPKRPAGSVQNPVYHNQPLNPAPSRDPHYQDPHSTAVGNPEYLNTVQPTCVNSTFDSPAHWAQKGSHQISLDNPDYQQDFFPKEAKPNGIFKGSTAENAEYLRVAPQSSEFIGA
Chain of BTK (Q06187 whole entry): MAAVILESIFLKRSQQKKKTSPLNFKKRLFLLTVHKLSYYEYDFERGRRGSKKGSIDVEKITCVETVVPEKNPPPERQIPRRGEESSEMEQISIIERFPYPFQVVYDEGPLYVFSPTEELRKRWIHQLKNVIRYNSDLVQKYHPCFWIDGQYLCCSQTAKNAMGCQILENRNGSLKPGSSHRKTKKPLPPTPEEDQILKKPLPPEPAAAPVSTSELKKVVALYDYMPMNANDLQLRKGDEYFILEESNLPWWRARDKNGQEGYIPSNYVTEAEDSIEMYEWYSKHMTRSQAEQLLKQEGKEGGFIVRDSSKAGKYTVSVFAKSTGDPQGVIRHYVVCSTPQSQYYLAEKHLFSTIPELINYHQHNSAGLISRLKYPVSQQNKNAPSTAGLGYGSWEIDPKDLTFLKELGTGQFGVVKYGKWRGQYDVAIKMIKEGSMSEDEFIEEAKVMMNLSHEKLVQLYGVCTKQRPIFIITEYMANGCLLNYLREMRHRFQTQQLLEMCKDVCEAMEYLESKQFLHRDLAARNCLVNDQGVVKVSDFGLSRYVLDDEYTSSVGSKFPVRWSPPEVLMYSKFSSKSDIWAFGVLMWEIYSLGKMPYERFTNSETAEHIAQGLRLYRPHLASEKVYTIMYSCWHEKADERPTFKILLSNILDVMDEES

The IC50 is the concentration needed to halve the response being measured. A higher IC50 goes with weaker potency in that assay. For the compound `CN(C/C=C/C(=O)N1CCCC(n2nc(-c3ccc(Oc4ccccc4)cc3)c3c(N)ncnc32)C1)CCO` (stereo not shown) [Compound 3], the figures for the IC50 in test [1] and in test [2] were 2.1 nM and 74.5 nM, respectively.
By GI50 is commonly meant the concentration at which growth is held to half of that of the control. `CN(C)C/C=C/C(=O)N1CCC[C@@H]1Cn1nc(-c2ccc(Oc3ccccc3)cc2)c2c(N)ncnc21` [Compound 11, (E)-1-((R)-2-((4-amino-3-(4-phenoxyphenyl)-1H-pyrazolo[3,4-d]pyrimidin-1-yl)methyl)pyrolidin-1-yl)-4-(dimethylamino)but-2-en-1-one]: in test [3], the “Glutathione Conj Rate” value stood at 0.004525 nmol/min. Further, the GI50 in test [4] was > 10000 nM.
